Data as given in US20180319810A1, “SUBSTITUTED BRIDGED UREA ANALOGS AS SIRTUIN MODULATORS” (GlaxoSmithKline Intellectual Property (No.2) Limited, priority 2014, published 2018).

Target: T1, SIRT1 (Homo sapiens, UniProt Q96EB6)
T1 sequence (Q96EB6 1-747): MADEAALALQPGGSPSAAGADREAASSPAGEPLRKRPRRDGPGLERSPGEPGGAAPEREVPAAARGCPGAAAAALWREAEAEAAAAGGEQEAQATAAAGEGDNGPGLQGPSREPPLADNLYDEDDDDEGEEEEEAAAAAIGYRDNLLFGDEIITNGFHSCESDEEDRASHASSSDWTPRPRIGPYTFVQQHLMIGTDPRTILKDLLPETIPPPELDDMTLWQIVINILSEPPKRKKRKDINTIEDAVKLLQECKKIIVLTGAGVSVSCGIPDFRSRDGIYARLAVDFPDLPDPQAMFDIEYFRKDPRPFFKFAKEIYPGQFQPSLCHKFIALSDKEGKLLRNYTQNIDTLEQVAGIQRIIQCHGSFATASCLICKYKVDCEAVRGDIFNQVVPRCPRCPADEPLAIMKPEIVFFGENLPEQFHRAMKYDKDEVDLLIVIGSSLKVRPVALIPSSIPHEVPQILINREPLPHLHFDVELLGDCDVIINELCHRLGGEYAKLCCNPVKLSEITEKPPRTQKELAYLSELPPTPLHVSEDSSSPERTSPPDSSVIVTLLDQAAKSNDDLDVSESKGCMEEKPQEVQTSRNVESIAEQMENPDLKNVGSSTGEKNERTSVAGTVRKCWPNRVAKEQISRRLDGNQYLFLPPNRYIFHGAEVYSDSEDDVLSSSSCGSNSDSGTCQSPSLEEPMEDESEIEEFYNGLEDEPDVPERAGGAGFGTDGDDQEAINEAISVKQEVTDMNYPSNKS
Test: Trp mass spectrometry assay of SIRT1 activation
Format: biochemical
Settings: Trp peptide Ac-R-H-K-K(Ac)-W-NH2 0.5 μM, 120 μM βNAD+, 10 nM SIRT1, 25 min, 25° C.
Excerpt: Mass spectrometry based assays were used to identify modulators of SIRT1 activity. […] The peptide was labeled with the fluorophore 5TMR (excitation 540 nm/emission 580 nm) at the C-terminus. The sequence of the peptide substrate was based on p53 with several modifications. In addition, the methionine residue naturally present in the sequence was replaced with the norleucine because the methionine may be susceptible to oxidation during synthesis and purification.
The Trp mass spectrometry assay was conducted as follows. […] The SIRT1 protein was obtained by cloning the SirT1 gene into a T7-promoter containing vector, which was then expressed in BL21(DE3) bacterial cells and purified as described in further detail below. Test compound was added at varying concentrations to this reaction mixture and the resulting reactions were monitored. After the 25 minute incubation with SIRT1, 10 μL of 10% formic acid was added to stop the reaction. The resulting reactions were sealed and frozen for later mass spec analysis. The relative SIRT1 activity was then determined by measuring the amount of O-acetyl-ADP-ribose (OAADPR) formed (or, alternatively, the amount of deacetylated Trp peptide generated) by the NAD-dependent sirtuin deacetylation reaction in the presence of varying concentrations of the test compound versus control reactions lacking the test compound.
The degree to which the test agent activated deacetylation by SIRT1 was expressed as EC1.5 (i.e., the concentration of compound required to increase SIRT1 activity by 50% over the control lacking test compound), and Percent Maximum Activation (i.e., the maximum activity relative to control (100%) obtained for the test compound).
This time point was the same as that used for test compounds and, within the linear range, the endpoint represents a change in velocity.
For the above assay, SIRT1 protein was expressed and purified as follows. The SirT1 gene was cloned into a T7-promoter containing vector and transformed into BL21(DE3). The protein was expressed by induction with 1 mM IPTG as an N-terminal His-tag fusion protein at 18° C. overnight and harvested at 30,000×g. Cells were lysed with lysozyme in lysis buffer (50 mM Tris-HCl, 2 mM Tris[2-carboxyethyl]phosphine (TCEP), 10 μM ZnCl2, 200 mM NaCl) and further treated with sonication for 10 min for complete lysis. The protein was purified over a Ni-NTA column (Amersham) and fractions containing pure protein were pooled, concentrated and run over a sizing column (Sephadex S200 26/60 global). The peak containing soluble protein was collected and run on an Ion-exchange column (MonoQ). Gradient elution (200 mM-500 mM NaCl) yielded pure protein. This protein was concentrated and dialyzed against dialysis buffer (20 mM Tris-HCl, 2 mM TCEP) overnight. The protein was aliquoted and frozen at −80° C. until further use.
“NT” means not tested; “ND” means not determinable.

TRP Activity (EC1.5, concentration of compound required to increase SIRT1 activity by 50% over control)	TRP MAX RESP (percent maximum fold activation relative to control)	SMILES
B (EC1.5 1-25 μM)	A (Fold activation ≥150%)	O=C(Nc1ccnc(OC[C@@H](O)CO)n1)N1c2nc(-c3cccc(C(F)(F)F)c3)ncc2N2CC[C@H]1C2 [Example 17, (8S)—N-(2-((S)-2,3-dihydroxypropoxy)pyrimidin-4-yl)-2-(3-(trifluoromethyl)phenyl)-7,8-dihydro-5,8-methanopyrimido[4,5-b][1,4]diazepine-9(6H)-carboxamide]
B (EC1.5 1-25 μM)	A (Fold activation ≥150%)	O=C(Nc1cnc(OC[C@H](O)CO)cn1)N1c2nc(-c3cccc(C(F)(F)F)c3)ncc2N2CC[C@H]1C2 [Example 18, (8S)—N-(5-((R)-2,3-dihydroxypropoxy)pyrazin-2-yl)-2-(3-(trifluoromethyl)phenyl)-7,8-dihydro-5,8-methanopyrimido[4,5-b][1,4]diazepine-9(6H)-carboxamide]
A (EC1.5<1 μM)	A (Fold activation ≥150%)	CCNC(=O)N1c2nc(-c3cccc(C(F)(F)F)c3)ncc2N2CC[C@H]1C2.Cl [Example 21, (8S)—N-ethyl-2-(3-(trifluoromethyl)phenyl)-7,8-dihydro-5,8-methano pyrimido[4,5-b][1,4]diazepine-9(6H)-carboxamide, Hydrochloride]
A (EC1.5<1 μM)	A (Fold activation ≥150%)	O=C(Nc1cccc(OC[C@H](O)CO)n1)N1c2nc(-c3cccc(C(F)(F)F)c3)ncc2N2CC[C@H]1C2 [Example 22, (8S)—N-(6-((R)-2,3-dihydroxypropoxy)pyridin-2-yl)-2-(3-(trifluoromethyl)phenyl)-7,8-dihydro-5,8-methanopyrimido[4,5-b][1,4]diazepine-9(6H)-carboxamide]
B (EC1.5 1-25 μM)	A (Fold activation ≥150%)	O=C(Nc1cnc(OC[C@@H](O)CO)cn1)N1c2nc(-c3cccc(C(F)(F)F)c3)ncc2N2CC[C@H]1C2 [Example 23, (8S)—N-(5-((S)-2,3-dihydroxypropoxy)pyrazin-2-yl)-2-(3-(trifluoromethyl)phenyl)-7,8-dihydro-5,8-methanopyrimido[4,5-b][1,4]diazepine-9(6H)-carboxamide]
B (EC1.5 1-25 μM)	A (Fold activation ≥150%)	O=C(Nc1cncc(OC[C@@H](O)CO)c1)N1c2nc(-c3cccc(C(F)(F)F)c3)ncc2N2CC[C@H]1C2 [Example 24, (8S)—N-(5-((S)-2,3-dihydroxypropoxy)pyridin-3-yl)-2-(3-(trifluoromethyl)phenyl)-7,8-dihydro-5,8-methanopyrimido[4,5-b][1,4]diazepine-9(6H)-carboxamide]
B (EC1.5 1-25 μM)	A (Fold activation ≥150%)	O=C(Nc1nccc(OC[C@H](O)CO)n1)N1c2nc(-c3cccc(C(F)(F)F)c3)ncc2N2CC[C@H]1C2 [Example 26, (8S)—N-(4-((R)-2,3-dihydroxypropoxy)pyrimidin-2-yl)-2-(3-(trifluoromethyl)phenyl)-7,8-dihydro-5,8-methanopyrimido[4,5-b][1,4]diazepine-9(6H)-carboxamide]
B (EC1.5 1-25 μM)	A (Fold activation ≥150%)	O=C(Nc1ccnc(OC[C@H](O)CO)n1)N1c2nc(-c3cccc(C(F)(F)F)c3)ncc2N2CC[C@H]1C2 [Example 28, (8S)—N-(2-((R)-2,3-dihydroxypropoxy)pyrimidin-4-yl)-2-(3-(trifluoromethyl)phenyl)-7,8-dihydro-5,8-methanopyrimido[4,5-b][1,4]diazepine-9(6H)-carboxamide]
B (EC1.5 1-25 μM)	A (Fold activation ≥150%)	O=C(Nc1cc(OC[C@@H](O)CO)ncn1)N1c2nc(-c3cccc(C(F)(F)F)c3)ncc2N2CC[C@H]1C2 [Example 29, (8S)—N-(6-((S)-2,3-dihydroxypropoxy)pyrimidin-4-yl)-2-(3-(trifluoromethyl)phenyl)-7,8-dihydro-5,8-methanopyrimido[4,5-b][1,4]diazepine-9(6H)-carboxamide]

SMILES	TRP Activity (EC1.5, concentration of compound required to increase SIRT1 activity by 50% over control)	TRP MAX RESP (percent maximum fold activation relative to control)
O=C(Nc1ccnc(OC2CCOCC2)n1)N1c2nc(-c3cccc(C(F)(F)F)c3)ncc2N2CC[C@H]1C2 [Example 19, (8S)—N-(2-((tetrahydro-2H-pyran-4-yl)oxy)pyrimidin-4-yl)-2-(3-(trifluoromethyl)phenyl)-7,8-dihydro-5,8-methanopyrimido[4,5-b][1,4]diazepine-9(6H)-carboxamide]	B (EC1.5 1-25 μM)	A (Fold activation ≥150%)
O=C(NC1CCC1)N1c2nc(-c3cccc(C(F)(F)F)c3)ncc2N2CC[C@H]1C2 [Example 20, (8S)—N-cyclobutyl-2-(3-(trifluoromethyl)phenyl)-7,8-dihydro-5,8-methanopyrimido[4,5-b][1,4]diazepine-9(6H)-carboxamide]	A (EC1.5<1 μM)	A (Fold activation ≥150%)
O=C(Nc1ccnc(O[C@H]2CCOC2)n1)N1c2nc(-c3cccc(C(F)(F)F)c3)ncc2N2CC[C@H]1C2 [Example 25, (8S)—N-(2-(((S)-tetrahydrofuran-3-yl)oxy)pyrimidin-4-yl)-2-(3-(trifluoro-methyl)phenyl)-7,8-dihydro-5,8-methanopyrimido[4,5-b][1,4]diazepine-9(6H)-carboxamide]	B (EC1.5 1-25 μM)	A (Fold activation ≥150%)
O=C(Nc1cc(F)cc(-c2cccnc2)c1)N1c2nc(-c3cccc(C(F)(F)F)c3)ncc2N2CC[C@H]1C2 [Example 27, (8S)—N-(3-fluoro-5-(pyridin-3-yl)phenyl)-2-(3-(trifluoromethyl)phenyl)-7,8-dihydro-5,8-methanopyrimido[4,5-b][1,4]diazepine-9(6H)-carboxamide]	A (EC1.5<1 μM)	A (Fold activation ≥150%)
CC(C)NC(=O)N1c2nc(-c3cccc(C(F)(F)F)c3)ncc2N2CC[C@H]1C2 [Example 30, (8S)—N-isopropyl-2-(3-(trifluoromethyl)phenyl)-7,8-dihydro-5,8-methanopyrimido[4,5-b][1,4]diazepine-9(6H)-carboxamide]	B (EC1.5 1-25 μM)	A (Fold activation ≥150%)
